Measured values as given in article PMC10305181, “A VEGFB-Based Peptidomimetic Inhibits VEGFR2-Mediated PI3K/Akt/mTOR and PLCγ/ERK Signaling and Elicits Apoptotic, Antiangiogenic, and Antitumor Activities” (Pharmaceuticals, 2023).
Where two headings read alike, the source gives them in different places. Bridge positions count the residues as written; N and C are the ends. Peptide text beside a SMILES is read from it.

Columns and labels:
4T1 MCT cells = assay: MTT assay, 4T1 MCT cells; assay type: cell-based, murine; conditions: C-VGB3 0–1.81 μM, n = 3, read-out: IC50, proliferation
Description: Figure 5 Suppression of 4T1 cell proliferation and metastasis by C-VGB3 through blockade of VEGFR2 signaling pathways. (A) MTT assay was performed to investigate C-VGB3 effect on the proliferation of 4T1 tumor cells in vitro. C-VGB3 was used at concentrations 0–1.81 μM in the presence (20 ng·mL^−1) or the absence of VEGF. The control cells were treated with no peptide. After 24 and 48 h, the absorbance was measured at 570 nm utilizing an ELISA plate reader (Space Fax 2100, Awareness, Westport, CT, USA). Error bars represent ± SEM. n = 3; * p = 0.0 2, ** p = 0.001, *** and ### p = 0.0001, **** and #### p < 0.0001, ns = not significant; one-way ANOVA. (B) To evaluate the mechanism by which C-VGB3 diminished cell proliferation and metastasis, Western blot analysis was performed for 4T1 cells. […] Error bars represent ± SEM. n = 3; * p = 0.02, ** p = 0.001, *** p = 0.0001, **** p < 0.0001, ns = not significant; one-way ANOVA.
The effects of C-VGB3 and L-VGB3 on the cell survival of HUVE and 4T1 cell lines were investigated using the MTT assay, as previously described, with some modifications. […] After 24 and 48 h of incubation at 37 °C, the absorbance at 570 nm was recorded using an ELISA plate reader (Space Fax 2100, Awareness, Palm City, FL, USA). […]

[1] = test system: signaling proteins in 4T1 MCT cells; assay: Western blot analysis, 4T1 cells; assay type: cell-based, murine
Description: Next, VEGFR2 signaling was investigated in 4T1 MCTs. […] Considering the implication of the PI3K/AKT/mTOR signaling pathway in most human cancers, the effect of C-VGB3 on this pathway was evaluated in 4T1 MCT cells. […] The NF-κB pathway is an important target of AKT, which contributes to abnormal cell proliferation and differentiation, the inhibition of apoptosis, enhanced metastasis, and treatment resistance. Therefore, the inhibition of upstream AKT signaling would be expected to downregulate NF-κB and/or p-NF-κB.
The levels of signaling proteins were investigated by the Western blot assay. 4T1 and HUVE cells stimulated by VEGF (20 ng·mL^−1) were treated with (0.40 μM) or without C-VGB3 (treatment and control groups, respectively) after starvation in a serum-free medium for 24 h. After washing with PBS buffer twice, the cells were treated with RIPA lysis buffer containing (Sigma, St. Louis, MO, USA). Bradford′s test was performed to estimate the protein concentration. Equal amounts of total protein were electrophoresed on a 10% SDS-polyacrylamide gel, separated, and then transferred to a nitrocellulose membrane. Nitrocellulose was soaked in a blocking buffer containing 5% dry milk, Tris-buffered saline, and Tween 20 (TBST) for 1 h at ambient temperature. The nitrocellulose membrane was then washed with wash buffer and treated with antibodies against VEGFR2 p-VEGFR2, AKT, p-AKT, PI3K, mTOR, p-mTOR, NF-κB, p-NFκB, P53, MDM2, Bax, Bcl2, Bid, Bim, Apaf-1, cytochrome c, caspase-9, Fas (CD95), DR4 (CD261), DR5 (CD262), caspase3, caspase7, caspase8, PARP1, ERK 1/2, p-ERK1/2, Ras, Raf, Cdk4, GSK-3β, cyclin D1, vimentin, N-cadherin, E-cadherin, FAK, p-FAK, paxillin, p-paxillin, and β-actin overnight at 4 °C. The next steps were performed as described previously. Because molecular weight ranges of target signaling proteins are very close, individual gels were run for separate signaling proteins (Figure S7).

HUVECs = assay: Annexin V/PI flow cytometry, HUVECs; assay type: cell-based, human; conditions: 0.40 μM, 24 h, VEGF 20 ng·mL^−1; control 9.61; n = 3; p < 0.0001; in % (unit assumed)
Description: An important consequence of VEGF signals is cell survival dominantly via PI3K/AKT/mTOR pathway. Thus, inhibition of VEGF signals leads to the induction of apoptosis. Accordingly, the ability of C-VGB3 to induce apoptosis was investigated. First, apoptotic endothelial and tumor cells were analyzed by flow cytometry after staining with annexin V-FITC and PI. (Figure 6A). Treatment with C-VGB3 (0.40 μM) induced significant apoptosis in both cell lines compared to the controls. […] Apoptosis induction by C-VGB3 was further characterized by the TUNEL assay, as an indicator of late apoptosis, with a confocal microscope (Figure 6B).
Annexin V/Propidium Iodide flow cytometry was performed to investigate the C-VGB3 effect on apoptosis induction, as previously described, with some modifications. […]

With `CC(C)C[C@@H]1NC(=O)CNC(=O)[C@H](CC(=O)O)NC(=O)[C@H](CC(=O)O)NC(=O)[C@@H]2CCCN2C(=O)[C@@H]2CCCN2C(=O)[C@H](CCCNC(=N)N)NC(=O)[C@@H](NC(=O)[C@@H](N)CCC(=O)O)CSSC[C@@H](C(=O)O)NC1=O` [C-VGB3] (H-ECRPPDDGLC-OH; disulfide 2-10) the IC50 (4T1 MCT cells; 24 h) was 560 nM, the IC50 (4T1 MCT cells; 48 h) was 370 nM and the “increase in cleaved PARP1” value ([1]; 4T1 (second of 'respectively'), 0.40 μM, p < 0.0001) was 4.05 fold. For the same compound, the Fas expression ([1]; 4T1, 0.40 μM) was “not affected”, the “increase in Bax/Bcl2 ratio” value ([1]; 4T1, 0.40 μM) was ~5.25 fold and the “increased level of cleaved caspase-3” value ([1]; 4T1, 0.40 μM) was 4.0 times. The “increased level of cleaved caspase-7” value ([1]; 4T1, 0.40 μM) was 4.1 times, the “increased level of cleaved caspase-9” value ([1]; 4T1, 0.40 μM) was 3.5 times and the Bax level ([1]; 4T1, 0.40 μM, p < 0.0001) was “increased”. For the same compound, the DR4 level ([1]; 4T1, 0.40 μM, p < 0.0001) was “increase”, the MDM2 level ([1]; 4T1, 0.40 μM, p < 0.0001) was “markedly decreased” and the P53 level ([1]; 4T1, 0.40 μM, p < 0.0001) was “enormously increased”. The VEGFR2 level ([1]; 4T1, 0.40 μM, p < 0.0001) was “suppressed”, the paxillin ([1]; 4T1, 0.40 μM, p < 0.0001) was “substantially inhibited” and the p-VEGFR2 level ([1]; 4T1, 0.40 μM, p = 0.0001) was “suppressed”. For the same compound, the p-paxillin ([1]; 4T1, 0.40 μM, p = 0.0001) was “substantially inhibited”, the Apaf-1 ([1]; 4T1, 0.40 μM, p = 0.001) was “promoted” and the Bcl2 expression ([1]; 4T1, 0.40 μM, p = 0.001) was “decrease”. For the same compound, the Bid expression level ([1]; 4T1, 0.40 μM, p = 0.001) was “increased”, the DR5 level ([1]; 4T1, 0.40 μM, p = 0.001) was “increase” and the E-cadherin expression ([1]; 4T1, 0.40 μM, p = 0.001) was “potently increased”. For the same compound, the FAK ([1]; 4T1, 0.40 μM, p = 0.001) was “substantially inhibited”, the N-cadherin level ([1]; 4T1, 0.40 μM, p = 0.001) was “reduced” and the p-AKT level ([1]; 4T1, 0.40 μM, p = 0.001) was “significantly decreased”. For the same compound, the p-FAK ([1]; 4T1, 0.40 μM, p = 0.001) was “substantially inhibited”, the p-mTOR level ([1]; 4T1, 0.40 μM, p = 0.001) was “significantly decreased” and the Bim level ([1]; 4T1, 0.40 μM, p = 0.02) was “increased”. The NF-κB level ([1]; 4T1, 0.40 μM, p = 0.02) was “decreased levels”, the PI3K level ([1]; 4T1, 0.40 μM, p = 0.02) was “significantly decreased” and the cytochrome c release ([1]; 4T1, 0.40 μM, p = 0.02) was “promoted”. For the same compound, the mTOR level ([1]; 4T1, 0.40 μM, p = 0.02) was “significantly decreased”, the p-NF-κB level ([1]; 4T1, 0.40 μM, p = 0.02) was “decreased levels” and the vimentin level ([1]; 4T1, 0.40 μM, p = 0.02) was “reduced”. For the same compound, the “level of apoptotic cells” value (HUVECs) was 56.62.
